Eight compounds from ChEMBL document CHEMBL1145498, “A systematic interaction map of validated kinase inhibitors with Ser/Thr kinases” (Proc Natl Acad Sci U S A, 2007) can be followed below.

Assay [1] addresses Dual specificity protein kinase CLK2 (Homo sapiens) (UniProt P49760).
The target of assay [2] is T1, Serine/threonine-protein kinase 17A (Homo sapiens) (UniProt Q9UEE5).
T1 sequence (whole entry): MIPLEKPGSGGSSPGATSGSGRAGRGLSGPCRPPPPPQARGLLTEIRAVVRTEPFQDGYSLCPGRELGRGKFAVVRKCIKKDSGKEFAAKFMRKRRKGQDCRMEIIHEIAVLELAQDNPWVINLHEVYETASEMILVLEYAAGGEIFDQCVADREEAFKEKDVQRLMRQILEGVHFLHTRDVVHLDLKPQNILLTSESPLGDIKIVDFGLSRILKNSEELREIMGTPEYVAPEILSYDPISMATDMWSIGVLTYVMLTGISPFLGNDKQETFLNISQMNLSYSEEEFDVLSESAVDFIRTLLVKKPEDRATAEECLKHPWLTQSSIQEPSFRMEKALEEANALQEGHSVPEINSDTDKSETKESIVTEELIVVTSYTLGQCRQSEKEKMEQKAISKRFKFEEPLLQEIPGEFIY

The target in assay [3] is Calcium/calmodulin-dependent protein kinase type II subunit alpha (Homo sapiens) (UniProt Q9UQM7).
The target in assay [4] is Cyclin-dependent kinase-like 1 (Homo sapiens) (UniProt Q00532).
Assay [5] concerns the target Calcium/calmodulin-dependent protein kinase type II subunit delta (Homo sapiens) (UniProt Q13557).
Assay [6] has as its target Serine/threonine-protein kinase Nek6 (Homo sapiens) (UniProt Q9HC98).
In assay [7] the target is Casein kinase I isoform gamma-3 (Homo sapiens) (UniProt Q9Y6M4).
In assay [8] the target is Serine/threonine-protein kinase OSR1 (Homo sapiens) (UniProt O95747).
Assay [9] addresses Calcium/calmodulin-dependent protein kinase kinase 2 (Homo sapiens, UniProt Q96RR4).
The target in assay [10] is T2, 3-phosphoinositide-dependent protein kinase 1 (Homo sapiens) (UniProt O15530).
T2 sequence (whole entry): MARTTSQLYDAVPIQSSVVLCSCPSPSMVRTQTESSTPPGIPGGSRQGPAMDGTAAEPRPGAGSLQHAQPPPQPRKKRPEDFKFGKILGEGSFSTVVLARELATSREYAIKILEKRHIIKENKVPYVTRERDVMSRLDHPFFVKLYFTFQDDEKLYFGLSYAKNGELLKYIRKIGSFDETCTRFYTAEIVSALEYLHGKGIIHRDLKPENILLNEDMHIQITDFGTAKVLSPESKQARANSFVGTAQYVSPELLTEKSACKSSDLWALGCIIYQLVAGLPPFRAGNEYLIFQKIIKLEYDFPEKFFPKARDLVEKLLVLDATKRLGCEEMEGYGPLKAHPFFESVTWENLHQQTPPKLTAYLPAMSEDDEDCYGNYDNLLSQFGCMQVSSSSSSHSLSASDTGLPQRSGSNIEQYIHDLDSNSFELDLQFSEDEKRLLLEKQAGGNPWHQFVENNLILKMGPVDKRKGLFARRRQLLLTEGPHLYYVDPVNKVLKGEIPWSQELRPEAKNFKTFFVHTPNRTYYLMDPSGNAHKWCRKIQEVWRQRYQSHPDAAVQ

Assay [11] has as its target Dual specificity protein kinase CLK3 (Homo sapiens) (UniProt P49761).
The target in assay [12] is T3, Serine/threonine-protein kinase PLK4 (Homo sapiens) (UniProt O00444).
T3 sequence (whole entry): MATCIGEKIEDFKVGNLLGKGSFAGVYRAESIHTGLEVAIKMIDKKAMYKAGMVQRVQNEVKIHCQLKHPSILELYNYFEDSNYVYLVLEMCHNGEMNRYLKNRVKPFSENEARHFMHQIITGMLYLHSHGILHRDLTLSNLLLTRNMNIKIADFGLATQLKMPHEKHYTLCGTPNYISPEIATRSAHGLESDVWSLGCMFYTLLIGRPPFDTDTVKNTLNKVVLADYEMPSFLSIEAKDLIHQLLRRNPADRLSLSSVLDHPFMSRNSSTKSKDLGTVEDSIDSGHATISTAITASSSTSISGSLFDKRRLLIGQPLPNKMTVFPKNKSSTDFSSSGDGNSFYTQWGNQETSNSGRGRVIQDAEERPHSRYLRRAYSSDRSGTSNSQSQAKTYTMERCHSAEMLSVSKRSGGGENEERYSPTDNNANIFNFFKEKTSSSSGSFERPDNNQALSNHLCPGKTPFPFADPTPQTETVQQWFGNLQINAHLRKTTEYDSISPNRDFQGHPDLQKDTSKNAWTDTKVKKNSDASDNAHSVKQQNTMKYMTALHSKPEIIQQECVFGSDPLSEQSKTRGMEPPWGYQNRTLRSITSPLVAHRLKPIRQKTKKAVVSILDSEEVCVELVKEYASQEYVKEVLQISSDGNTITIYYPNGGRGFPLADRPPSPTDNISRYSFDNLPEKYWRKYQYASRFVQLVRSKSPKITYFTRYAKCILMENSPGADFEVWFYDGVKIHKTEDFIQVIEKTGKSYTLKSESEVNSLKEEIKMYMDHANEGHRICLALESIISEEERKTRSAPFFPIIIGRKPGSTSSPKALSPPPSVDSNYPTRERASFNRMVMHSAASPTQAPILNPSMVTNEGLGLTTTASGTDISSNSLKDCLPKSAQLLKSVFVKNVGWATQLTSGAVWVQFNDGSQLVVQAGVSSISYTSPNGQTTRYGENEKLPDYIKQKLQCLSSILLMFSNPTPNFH

Assay [13] concerns the target Serine/threonine-protein kinase VRK2 (Homo sapiens) (UniProt Q86Y07).
Assay [14] deals with Serine/threonine-protein kinase 25 (Homo sapiens) (UniProt O00506).
Assay [15] concerns the target Serine/threonine-protein kinase 16 (Homo sapiens) (UniProt O75716).
The target of assay [16] is Dual specificity protein kinase CLK1 (Homo sapiens) (UniProt P49759).
Assay [17] has as its target Casein kinase I isoform gamma-1 (Homo sapiens) (UniProt Q9HCP0).

Dual specificity protein kinase CLK3 (Homo sapiens), sequence (P49761 whole entry, looked up): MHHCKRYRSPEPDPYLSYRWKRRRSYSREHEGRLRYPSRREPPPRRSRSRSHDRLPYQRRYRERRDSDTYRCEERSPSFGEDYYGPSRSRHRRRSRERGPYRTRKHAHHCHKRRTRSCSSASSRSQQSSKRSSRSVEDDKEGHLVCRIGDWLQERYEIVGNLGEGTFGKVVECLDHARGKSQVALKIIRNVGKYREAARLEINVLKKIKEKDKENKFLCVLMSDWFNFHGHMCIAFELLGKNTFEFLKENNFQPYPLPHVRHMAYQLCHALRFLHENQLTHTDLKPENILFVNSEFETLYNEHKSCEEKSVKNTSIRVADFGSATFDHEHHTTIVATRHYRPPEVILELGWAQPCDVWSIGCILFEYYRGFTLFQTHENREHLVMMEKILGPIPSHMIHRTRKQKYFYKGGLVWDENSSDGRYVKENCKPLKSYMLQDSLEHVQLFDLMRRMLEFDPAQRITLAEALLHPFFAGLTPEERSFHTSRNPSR
Dual specificity protein kinase CLK2 (Homo sapiens), sequence (P49760 whole entry, looked up): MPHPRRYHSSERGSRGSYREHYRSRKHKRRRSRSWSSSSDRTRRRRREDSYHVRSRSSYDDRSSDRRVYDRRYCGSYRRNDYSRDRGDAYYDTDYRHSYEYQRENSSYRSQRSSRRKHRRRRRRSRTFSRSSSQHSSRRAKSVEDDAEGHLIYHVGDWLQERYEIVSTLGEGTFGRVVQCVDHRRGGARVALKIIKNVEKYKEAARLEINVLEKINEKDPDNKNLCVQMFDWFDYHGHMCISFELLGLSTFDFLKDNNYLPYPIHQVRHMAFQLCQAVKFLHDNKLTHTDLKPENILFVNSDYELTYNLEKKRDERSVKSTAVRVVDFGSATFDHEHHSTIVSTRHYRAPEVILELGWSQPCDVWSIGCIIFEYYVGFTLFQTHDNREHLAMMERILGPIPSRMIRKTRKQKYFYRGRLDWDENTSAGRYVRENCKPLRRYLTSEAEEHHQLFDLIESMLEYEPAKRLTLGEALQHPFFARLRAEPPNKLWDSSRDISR
Calcium/calmodulin-dependent protein kinase kinase 2, sequence (Q96RR4 2-588 limits assumed): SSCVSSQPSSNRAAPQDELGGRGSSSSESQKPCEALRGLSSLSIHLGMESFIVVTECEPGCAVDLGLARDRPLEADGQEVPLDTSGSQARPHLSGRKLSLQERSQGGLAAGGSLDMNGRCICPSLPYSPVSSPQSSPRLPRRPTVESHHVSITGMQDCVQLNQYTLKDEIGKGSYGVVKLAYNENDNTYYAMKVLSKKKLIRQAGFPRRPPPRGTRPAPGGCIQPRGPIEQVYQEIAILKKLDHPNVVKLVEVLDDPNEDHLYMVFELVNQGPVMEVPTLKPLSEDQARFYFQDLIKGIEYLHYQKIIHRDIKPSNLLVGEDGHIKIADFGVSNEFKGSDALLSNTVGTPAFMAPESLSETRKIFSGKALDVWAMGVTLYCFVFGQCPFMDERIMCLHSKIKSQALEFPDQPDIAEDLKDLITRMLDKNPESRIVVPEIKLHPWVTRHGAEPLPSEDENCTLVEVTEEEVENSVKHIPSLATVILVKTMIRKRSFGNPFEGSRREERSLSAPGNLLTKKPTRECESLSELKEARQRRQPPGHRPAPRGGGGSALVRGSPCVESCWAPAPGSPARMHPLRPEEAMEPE
Serine/threonine-protein kinase Nek6 (Homo sapiens), sequence (Q9HC98 whole entry, canonical isoform): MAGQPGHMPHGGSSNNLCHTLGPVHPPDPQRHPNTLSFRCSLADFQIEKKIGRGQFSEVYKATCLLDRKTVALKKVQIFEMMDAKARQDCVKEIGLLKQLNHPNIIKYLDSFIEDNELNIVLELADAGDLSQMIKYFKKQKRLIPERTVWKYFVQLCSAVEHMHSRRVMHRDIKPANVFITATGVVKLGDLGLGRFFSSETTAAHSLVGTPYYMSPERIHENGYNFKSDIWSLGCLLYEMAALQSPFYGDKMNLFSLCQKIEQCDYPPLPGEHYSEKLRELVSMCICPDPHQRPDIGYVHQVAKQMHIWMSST
Cyclin-dependent kinase-like 1 (Homo sapiens), sequence (Q00532 whole entry): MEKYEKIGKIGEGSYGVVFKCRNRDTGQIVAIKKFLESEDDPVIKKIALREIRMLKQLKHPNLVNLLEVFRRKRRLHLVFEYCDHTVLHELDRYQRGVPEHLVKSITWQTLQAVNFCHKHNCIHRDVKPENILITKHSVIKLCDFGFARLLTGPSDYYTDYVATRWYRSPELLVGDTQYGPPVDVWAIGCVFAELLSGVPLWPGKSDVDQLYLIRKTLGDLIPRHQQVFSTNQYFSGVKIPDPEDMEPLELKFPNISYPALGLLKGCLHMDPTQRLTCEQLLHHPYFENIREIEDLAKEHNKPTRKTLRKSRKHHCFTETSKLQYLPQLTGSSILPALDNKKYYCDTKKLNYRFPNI
Serine/threonine-protein kinase 25 (Homo sapiens), sequence (O00506 whole entry, looked up): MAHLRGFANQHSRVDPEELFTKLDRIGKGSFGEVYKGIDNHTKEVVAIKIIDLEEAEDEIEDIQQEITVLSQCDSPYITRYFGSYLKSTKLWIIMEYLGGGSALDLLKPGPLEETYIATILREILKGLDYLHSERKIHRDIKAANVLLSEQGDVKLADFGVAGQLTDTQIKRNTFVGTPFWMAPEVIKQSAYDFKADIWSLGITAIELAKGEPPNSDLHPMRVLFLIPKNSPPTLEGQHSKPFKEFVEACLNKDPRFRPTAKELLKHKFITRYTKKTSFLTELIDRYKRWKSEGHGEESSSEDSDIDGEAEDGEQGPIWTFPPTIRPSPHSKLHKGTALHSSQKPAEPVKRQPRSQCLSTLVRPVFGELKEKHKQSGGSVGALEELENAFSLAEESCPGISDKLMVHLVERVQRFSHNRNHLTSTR
Serine/threonine-protein kinase 16 (Homo sapiens), sequence (O75716 whole entry): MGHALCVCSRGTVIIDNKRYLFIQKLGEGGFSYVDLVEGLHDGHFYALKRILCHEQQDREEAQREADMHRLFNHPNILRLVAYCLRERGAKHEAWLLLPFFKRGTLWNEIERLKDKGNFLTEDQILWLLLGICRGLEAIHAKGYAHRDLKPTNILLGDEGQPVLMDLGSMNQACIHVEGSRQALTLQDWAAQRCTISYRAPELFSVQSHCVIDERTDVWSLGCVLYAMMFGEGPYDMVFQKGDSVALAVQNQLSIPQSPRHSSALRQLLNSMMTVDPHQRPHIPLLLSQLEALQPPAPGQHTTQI
Casein kinase I isoform gamma-1 (Homo sapiens), sequence (Q9HCP0 whole entry, looked up, canonical isoform): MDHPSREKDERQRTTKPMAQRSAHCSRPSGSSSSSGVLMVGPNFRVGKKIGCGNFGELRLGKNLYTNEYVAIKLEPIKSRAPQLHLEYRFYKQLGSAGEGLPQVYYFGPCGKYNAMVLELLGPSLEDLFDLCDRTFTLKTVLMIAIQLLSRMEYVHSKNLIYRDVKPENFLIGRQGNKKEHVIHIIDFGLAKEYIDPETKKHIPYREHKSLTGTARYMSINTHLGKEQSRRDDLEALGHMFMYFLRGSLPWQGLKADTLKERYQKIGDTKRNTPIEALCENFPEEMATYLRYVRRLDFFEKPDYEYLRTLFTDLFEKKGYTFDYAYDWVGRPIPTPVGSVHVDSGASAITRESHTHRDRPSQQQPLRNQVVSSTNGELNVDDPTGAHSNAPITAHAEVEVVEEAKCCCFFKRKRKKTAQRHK
Calcium/calmodulin-dependent protein kinase type II subunit alpha (Homo sapiens), sequence (Q9UQM7 whole entry): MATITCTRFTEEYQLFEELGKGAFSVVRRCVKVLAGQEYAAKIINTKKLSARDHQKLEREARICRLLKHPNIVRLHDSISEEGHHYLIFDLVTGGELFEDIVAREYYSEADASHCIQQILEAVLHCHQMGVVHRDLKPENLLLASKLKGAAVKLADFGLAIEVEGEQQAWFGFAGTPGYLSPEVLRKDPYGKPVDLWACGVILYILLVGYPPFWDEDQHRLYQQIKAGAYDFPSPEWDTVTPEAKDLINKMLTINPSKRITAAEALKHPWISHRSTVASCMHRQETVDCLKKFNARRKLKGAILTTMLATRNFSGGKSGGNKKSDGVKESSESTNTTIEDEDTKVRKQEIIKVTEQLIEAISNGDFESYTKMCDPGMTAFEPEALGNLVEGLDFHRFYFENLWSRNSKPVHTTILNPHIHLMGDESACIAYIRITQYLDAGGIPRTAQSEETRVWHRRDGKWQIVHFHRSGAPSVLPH
Dual specificity protein kinase CLK1 (Homo sapiens), sequence (P49759 whole entry, looked up, canonical isoform): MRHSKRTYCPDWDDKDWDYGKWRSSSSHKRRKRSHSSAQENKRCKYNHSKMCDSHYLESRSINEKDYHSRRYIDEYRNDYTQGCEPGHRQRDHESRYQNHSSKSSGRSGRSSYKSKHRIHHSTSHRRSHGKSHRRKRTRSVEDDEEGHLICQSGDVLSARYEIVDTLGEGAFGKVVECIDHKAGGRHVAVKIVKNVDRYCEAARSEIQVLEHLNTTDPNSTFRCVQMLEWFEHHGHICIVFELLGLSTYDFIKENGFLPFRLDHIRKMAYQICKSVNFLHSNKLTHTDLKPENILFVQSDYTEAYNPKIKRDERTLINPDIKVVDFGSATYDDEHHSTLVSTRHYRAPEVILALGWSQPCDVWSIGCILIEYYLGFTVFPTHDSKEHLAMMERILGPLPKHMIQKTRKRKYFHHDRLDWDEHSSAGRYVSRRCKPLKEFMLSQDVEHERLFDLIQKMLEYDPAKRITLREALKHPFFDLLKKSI
Casein kinase I isoform gamma-3 (Homo sapiens), sequence (Q9Y6M4 whole entry, looked up, canonical isoform): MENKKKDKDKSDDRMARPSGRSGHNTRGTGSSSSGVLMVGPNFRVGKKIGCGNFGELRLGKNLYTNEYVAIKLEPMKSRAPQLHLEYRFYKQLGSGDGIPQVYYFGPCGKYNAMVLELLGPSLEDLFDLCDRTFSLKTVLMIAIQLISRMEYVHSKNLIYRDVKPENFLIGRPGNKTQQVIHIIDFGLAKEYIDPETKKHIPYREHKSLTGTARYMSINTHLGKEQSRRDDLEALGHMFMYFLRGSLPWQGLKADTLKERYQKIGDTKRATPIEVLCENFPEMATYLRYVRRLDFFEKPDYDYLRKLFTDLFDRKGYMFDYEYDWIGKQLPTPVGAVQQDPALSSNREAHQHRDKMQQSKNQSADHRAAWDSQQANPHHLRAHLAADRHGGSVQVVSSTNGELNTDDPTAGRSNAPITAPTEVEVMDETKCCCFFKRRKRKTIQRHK

For the compound `CCN(CC)CCNC(=O)c1c(C)[nH]c(/C=C2\C(=O)Nc3ccc(Cl)cc32)c1C` [SU-11652], the ΔTm was 5.8 °C in assay [1]; 11 °C in assay [2]; 5.7 °C in assay [3]; 0.2 °C in assay [4]; 2.3 °C in assay [5]; -0.8 °C in assay [6]. The ΔTm in [7] was 3.8 °C; in assay [8], 2.9 °C; in assay [9], 7.9 °C; in [10] it was -0.7 °C; in assay [11], 2.2 °C; in assay [12] it was 7.8 °C. Moreover, the ΔTm in assay [13] worked out at 0.7 °C; in [14] it was 7.4 °C; in assay [15], 6 °C; in [16], 6.6 °C; in assay [17] it was 4.3 °C.

Turning to `COc1cc(OC)c(/C=C2\C(=O)Nc3ccccc32)c(OC)c1`, the shift in melting temperature (ΔTm) was 0.3 °C in assay [1]; -0.3 °C in assay [2]; -0.1 °C in assay [3]; -0.5 °C in assay [4]; -0.3 °C in assay [5]; 0 °C in [6]. Further, the ΔTm is 0.5 °C in [7]; 0.2 °C in [8]; 0.4 °C in assay [9]; -0.1 °C in assay [10]; 0 °C in assay [11]; 0.3 °C in assay [12]. For the same compound, the ΔTm is 2.2 °C in [13]; 0.1 °C in assay [14]; 0.2 °C in [15]; 0.1 °C in [16]; 0.5 °C in assay [17].

For `C[S+]([O-])c1ccc(-c2nc(-c3ccc(F)cc3)c(-c3ccncc3)[nH]2)cc1` (stereo unspecified) [SB-203580], the ΔTm in assay [1] is 0.2 °C; in assay [2], 0 °C; in [3], 0.3 °C; in [4], -0.4 °C; in assay [5] it was -0.3 °C; in assay [6], 0.2 °C. Further, the shift in melting temperature (ΔTm) was 0.4 °C in assay [7]; -0.2 °C in assay [8]; 0 °C in assay [9]; -0.1 °C in assay [10]; -0.1 °C in assay [11]; 0.7 °C in assay [12]. In addition, the shift in melting temperature (ΔTm) in [13] is 0.6 °C; in [14], 0.9 °C; in assay [15] it was 0.4 °C; in assay [16] it was -0.3 °C; in assay [17], 0.8 °C.

With `N#C/C(=C(/N)Sc1ccc(N)cc1)c1ccccc1C(F)(F)F`, the ΔTm is 0 °C in assay [1]; 0.4 °C in assay [2]; 0.6 °C in [3]; -0.2 °C in [4]; 0.1 °C in [5]; -0.1 °C in [6]. Also, the ΔTm was 0.6 °C in assay [7]; 0.5 °C in assay [8]; -0.2 °C in [9]; -0.1 °C in assay [10]; 0 °C in [11]; 0.1 °C in assay [12]. In addition, the ΔTm was determined as 0.1 °C in assay [13]; 0 °C in [14]; 0.2 °C in [15]; 0.1 °C in [16]; 0.5 °C in [17].

As to `COc1cc(O)c2c(c1)oc(=O)c1c3cc(O)c(O)cc3oc21` [WEDELOLACTONE], the ΔTm in assay [1] is 1.2 °C; in assay [2], 3 °C; in assay [3] it was 1.2 °C; in assay [4] it was -0.3 °C; in [5], 0.5 °C; in assay [6], 0.4 °C. The ΔTm in assay [7] is 1.5 °C; in assay [8] it was 1.9 °C; in assay [9] it was 2.3 °C; in [10], -0.4 °C; in assay [11] it was 2.1 °C; in [12], 2.9 °C. Moreover, the ΔTm stood at 1.2 °C in assay [13]; 2.7 °C in [14]; 0.1 °C in assay [15]; 2.6 °C in assay [16]; 1 °C in assay [17].

On to `O=C1Nc2ccccc2/C1=C/c1cnc[nH]1`, for which the ΔTm in assay [1] is 2.5 °C; in assay [2], 9 °C; in [3], 0.7 °C; in assay [4], 3.7 °C; in [5], -0.3 °C; in assay [6], 0 °C. Moreover, the ΔTm in [7] worked out at 1.5 °C; in assay [8], 2.4 °C; in assay [9] it was 3.1 °C; in assay [10], 1.3 °C; in assay [11] it was 1 °C; in assay [12] it was 5.8 °C. Moreover, the ΔTm in assay [13] came out at 2.1 °C; in [14], 6.3 °C; in assay [15], 7.5 °C; in assay [16], 3.3 °C; in [17], 1.2 °C.

For the compound `O=C1C(Cl)=C(N2C(=O)CCC2=O)C(=O)c2ccccc21`, the ΔTm in [1] is -1.3 °C; in assay [2], 0.5 °C; in [3], 3.4 °C; in [4] it was -0.5 °C; in assay [5], -1.5 °C; in assay [6] it was -0.3 °C. Also, the ΔTm in assay [7] was 0.1 °C; in assay [8] it was -1.4 °C; in assay [9], -2.5 °C; in assay [10], -1.9 °C; in [11] it was -1.3 °C; in assay [12] it was -3.7 °C. Besides, the ΔTm is -0.3 °C in assay [13]; -0.5 °C in assay [14]; -0.1 °C in assay [15]; -1.1 °C in assay [16]; 0.7 °C in assay [17].

Regarding `COc1cc(C[C@H]2C(=O)OC[C@@H]2Cc2ccc(OC)c(OC)c2)ccc1O` [ARCTIGENIN], the ΔTm in assay [1] is -0.1 °C; in [2], 1.4 °C; in assay [3], 0.1 °C; in assay [4] it was -0.1 °C; in assay [5], 0.2 °C; in assay [6], -0.7 °C. Moreover, the ΔTm is 0.2 °C in assay [7]; -0.1 °C in assay [8]; -0.9 °C in assay [9]; 0 °C in assay [10]; 0 °C in assay [11]; 0 °C in [12]. In addition, the shift in melting temperature (ΔTm) in assay [13] was 0.5 °C; in assay [14], 0.1 °C; in assay [15], 0 °C; in assay [16], -1 °C; in assay [17], 0 °C.
